Data: publication PMC11267380, “USP25 Elevates SHLD2‐Mediated DNA Double‐Strand Break Repair and Regulates Chemoresponse in Cancer” (Advanced Science, 2024)

Tests used:
[1] = biological target: T1, USP25 (Homo sapiens, UniProt Q9UHP3); assay: Surface Plasmon Resonance (SPR) analysis of peptide binding; details: result in words; for binding affinity for USP25: Figure 7a, Figure S7a-c
T1 sequence (Q9UHP3 1-1055): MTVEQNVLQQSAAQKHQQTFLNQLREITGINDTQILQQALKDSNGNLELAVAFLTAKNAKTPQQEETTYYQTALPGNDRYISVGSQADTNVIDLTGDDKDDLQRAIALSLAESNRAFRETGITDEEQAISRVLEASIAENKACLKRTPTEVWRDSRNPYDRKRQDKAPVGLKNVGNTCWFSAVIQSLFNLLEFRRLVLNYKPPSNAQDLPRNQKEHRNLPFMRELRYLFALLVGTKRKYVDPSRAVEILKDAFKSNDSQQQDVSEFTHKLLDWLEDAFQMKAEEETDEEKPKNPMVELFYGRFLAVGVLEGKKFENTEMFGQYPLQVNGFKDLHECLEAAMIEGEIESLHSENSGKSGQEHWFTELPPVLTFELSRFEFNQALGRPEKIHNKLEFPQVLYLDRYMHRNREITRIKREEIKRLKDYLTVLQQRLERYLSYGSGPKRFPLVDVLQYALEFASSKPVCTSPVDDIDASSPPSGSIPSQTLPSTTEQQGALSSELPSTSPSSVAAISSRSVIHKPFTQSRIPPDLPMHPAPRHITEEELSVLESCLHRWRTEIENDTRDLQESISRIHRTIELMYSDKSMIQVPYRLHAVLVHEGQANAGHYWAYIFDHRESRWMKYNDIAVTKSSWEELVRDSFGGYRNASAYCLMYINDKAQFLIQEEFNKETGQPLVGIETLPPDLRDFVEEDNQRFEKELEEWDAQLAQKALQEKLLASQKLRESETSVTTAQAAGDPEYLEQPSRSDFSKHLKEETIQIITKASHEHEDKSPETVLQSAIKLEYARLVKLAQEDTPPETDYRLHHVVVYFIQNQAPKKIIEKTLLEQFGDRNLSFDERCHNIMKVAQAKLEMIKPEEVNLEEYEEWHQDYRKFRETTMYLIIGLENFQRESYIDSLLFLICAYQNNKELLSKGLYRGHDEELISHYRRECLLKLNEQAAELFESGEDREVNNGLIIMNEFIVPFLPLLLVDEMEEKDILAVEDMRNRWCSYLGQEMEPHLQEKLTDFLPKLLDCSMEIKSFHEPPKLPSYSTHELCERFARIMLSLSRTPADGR
Method: Figure 7 Disturbing the USP25 and SHLD2 interaction counteracts colon cancer progression. a) The kinetic interaction of SH‐4 and USP25 was assessed using surface plasmon resonance (SPR) analyses. b) Co‐immunoprecipitation assays (Co‐IP) were performed to detect the interaction between USP25 and SHLD2 in HEK293T cells treated with indicated peptides. c) NHEJ repair capacity of HEK293T cells treated with indicated peptides was subjected using a reporter assay. d) Representative micrographs of GFP‐SHLD2 foci and e) quantification were shown following irradiation and indicated peptide treatment. Cells were stained with anti‐GFP antibodies. f) The highest‐scoring Dock model of the SH‐4 and USP25 complex is shown. Left: the surface of SH‐4 (green) and USP25 complex. Right: the 3D structure of SH‐4 (green) and USP25 complex. g) The effect of indicated peptides(20 µM) in combination with 5‐Fu (0, 0.1, 0.5, 1, 3 µM) on the chemosensitivity of SW620 cells was determined. h‐l) Xenograft tumor formation by SW620 cells in mice that were untreated or treated with PSH‐4 and 5‐Fu or each treatment alone was analyzed. A h) schematic model, i) representative tumor images, j) tumor volume over time, k) tumor weight, and l) HE or Ki67 staining assay were presented (n = 5 animals). m) A schematic model for generating patient‐derived tumor xenografts of colorectal adenocarcinoma (COAD) was provided. n) Western blots showing USP25 levels in COAD patient tumors (patients 1–3) were presented. o) Representative immunohistochemistry (IHC) micrographs showing USP25 expression in COAD patient‐derived tumors were provided. p–s) The PDX xenograft in mice that were untreated or treated with PSH‐4([…] ) and 5‐Fu ([…] ) or each treatment alone were analyzed. Representative p) tumor images, q) tumor volume over time, r) tumor weight, and s) HE or Ki67 staining assay were presented (n = 6 animals). Statistical analysis was performed using one‐way ANOVA followed by a Turkey's multiple comparison test (c,e,k,r) or two‐way ANOVA followed by a Turkey's multiple comparison test (g,j,q). TEXT PRINTED IN THE PICTURE: (a) SH-4: KD (M) 2.082*10^-5; kd (1/s) 0.00484 DOUBTS OF THE COPYIST ABOUT THIS PICTURE: SH-4, KD (M): the digits 2.082 and the exponent -5 are in small print, the 8 could be a 6 or a 3 / SH-4, kd (1/s): 0.00484 is in small print, the 8 could be a 6 or a 3
The amino acid (aa) sequences of peptides covering the SHLD2-binding region from USP25 are shown. The kinetic interaction of peptides and USP25 was determined by surface plasmon resonance (SPR) analyses.

[2] = tested on: NHEJ; assay: NHEJ reporter assay, cells treated with AZ1; assay type: cell-based; details: compared with USP25 depletion (decreased NHEJ); Figure S1h
[3] = tested on: HR; assay: HR reporter assay, cells treated with AZ1; assay type: cell-based; details: compared with USP25 depletion (increased HR); Figure S1i
[4] = tested on: RPA32 phosphorylation of Ser4/Ser8 in HEK293T cells; assay: RPA32 phosphorylation immunoblot after etoposide, USP25-depleted cells; assay type: cell-based; details: HEK293T stably expressing control or USP25 shRNA, Figure S2a
Method: a) HEK293T cells stably expressing control or USP25 shRNA were untreated and treaded with etopside at the indicated time point. Cells were lysed and lysates was performed with the indicated antibodies. b-c) Representative foci images and quantification of RPA32 (b) and RAD51 (c) were obtained in U2OS cells stably expressing control or USP25 shRNA with or without IR treatment (2Gy). n>80 in each group. d) USP25 was knocked down in ER-AsiSI U2OS cells by shRNA, and cell lysates were analyzed using the indicated antibodies. e) Schematic representation of Taqman qPCR primer design for measurement of DSB% at AsiSI sites located on chromosome1(Chr.1). The primer pairs of DNA resection are across BamHI restriction sites are marked by red arrows. ER-AsiSI U2OS cells stably expressing control and USP25 shRNA were treated with 300 nM 4- hydroxytamoxifen (4-OHT) for 4 h or mock treated and genomic DNA was then extracted and digested with BamHI overnight. The percentages of ssDNA at various distances (364nt, 1754nt and 3564nt) were measured by qPCR. f-h) Control and USP25 knockdown RKO cells transfected short interfering RNAs (siRNA) against SHLD2 were subjected to survival assays for CCK8 assay in response to IR (0, 1,1.5,2,2.5,3Gy), 5-Fu (0, 0.1,0.5,1,3µM) or cisplatin(0, 0.1,0.5,1,2,5µM). […]

[5] = tested on: RKO cells; assay: CCK8 survival assay, control, USP25 knockdown and SHLD2-depleted RKO cells; assay type: cell-based; details: 5-Fu (0, 0.1, 0.5, 1, 3 µM) or cisplatin (0, 0.1, 0.5, 1, 2, 5 µM)
Method: For long‐term proliferation, cells were seeded in triplicate in each well of 96‐well plates at a density of 1000 cells per well. After 24 h of culture, the cells were treated with the indicated doses of regents or peptides and incubated at 37 °C for 72 h. Subsequently, the medium was changed to a fresh medium containing cell counting kit‐8 solution (Dojindo, CK04), and the cells were placed in the incubator for an additional 1–2 h. The absorbance was measured at 450 nm using the SpectraMax M5 reader (Molecular Devices).
a) HEK293T cells stably expressing control or USP25 shRNA were untreated and treaded with etopside at the indicated time point. Cells were lysed and lysates was performed with the indicated antibodies. b-c) Representative foci images and quantification of RPA32 (b) and RAD51 (c) were obtained in U2OS cells stably expressing control or USP25 shRNA with or without IR treatment (2Gy). n>80 in each group. d) USP25 was knocked down in ER-AsiSI U2OS cells by shRNA, and cell lysates were analyzed using the indicated antibodies. e) Schematic representation of Taqman qPCR primer design for measurement of DSB% at AsiSI sites located on chromosome1(Chr.1). The primer pairs of DNA resection are across BamHI restriction sites are marked by red arrows. ER-AsiSI U2OS cells stably expressing control and USP25 shRNA were treated with 300 nM 4- hydroxytamoxifen (4-OHT) for 4 h or mock treated and genomic DNA was then extracted and digested with BamHI overnight. The percentages of ssDNA at various distances (364nt, 1754nt and 3564nt) were measured by qPCR. f-h) Control and USP25 knockdown RKO cells transfected short interfering RNAs (siRNA) against SHLD2 were subjected to survival assays for CCK8 assay in response to IR (0, 1,1.5,2,2.5,3Gy), 5-Fu (0, 0.1,0.5,1,3µM) or cisplatin(0, 0.1,0.5,1,2,5µM). Statistical analysis was performed using two-way ANOVA followed by a Turkey’s multiple comparison test (b,c,e,f,g,h) .

[6] = tested on: RKO and SW620 cells; assay: CCK8 survival assay, USP25 knockdown USP25-high colon cancer cells; assay type: cell-based; details: RKO: cisplatin (0, 0.5, 1, 3 µM), 5-Fu (0, 0.1, 0.5, 1, 3 µM), SW620: 5-Fu (0, 0.1, 0.5, 1, 3 µM), 72 h
Method: For long-term proliferation, cells were seeded in triplicate in each well of 96-well plates at a density of 1000 cells per well. After 24 h of culture, the cells were treated with the indicated doses of regents or peptides and incubated at 37 °C for 72 h. Subsequently, the medium was changed to a fresh medium containing cell counting kit-8 solution (Dojindo, CK04), and the cells were placed in the incubator for an additional 1-2 h. […] a) The mRNA expression levels of TRIM25, HECTD3, NEDD4L and WWP2 in human normal colon tissue samples (n=41) and colorectal adenocarcinoma tissue samples (n=286 COAD patients) from the Ualcan database were analyzed. b) The protein expression levels of USP25 were measured in HEK293T cells that stably expressed TRIM25 shRNA. c) NHEJ repair capacity of control or TRIM25 knockdown cells were subjected using a reporter assay. d-g) Immunoblot of USP25 in the RKO cells stably expressing control and USP25 shRNA. […] Statistical analysis was performed using t-test (a) or one-way ANOVA followed by a Turkey's multiple comparison test (c) or two-way ANOVA followed by a Turkey's multiple comparison test ([…]) .

[7] = biological target: T2, USP25 (as used for SPR) (UniProt Q9UHP3 1-1055); assay: SPR
T2 chain: T1 sequence (Q9UHP3 1-1055)

[8] = biological target: T2, USP25 (as used for SPR); assay: SPR

For “EKQHKNLENYKVPESI [SH‐2, peptide designed based on the structure of the N‐terminus (aa 1–200) of SHLD2]”, the “binding affinity for USP25” value [1] was “showed the binding affinity for USP25”.

In the case of “FTEEEKYQKLLSENK [SH‐3, peptide designed based on the structure of the N‐terminus (aa 1–200) of SHLD2]”, the “binding affinity for USP25” value [1] is reported as “showed the binding affinity for USP25”.

For OCCNCc1cc(Br)ccc1OCc1ccc(F)c(C(F)(F)F)c1 [AZ1], the “NHEJ after USP25 inhibition” value [2] was “led to similar results as depletion of USP25 in cells” and the “HR after USP25 inhibition” value [3] was “led to similar results as depletion of USP25 in cells”.

COc1cc([C@@H]2c3cc4c(cc3[C@@H](O[C@@H]3O[C@@H]5CO[C@@H](C)O[C@H]5[C@H](O)[C@H]3O)[C@H]3COC(=O)[C@H]23)OCO4)cc(OC)c1O [etoposide] was tested, and the “RPA32 phosphorylation of Ser4/Ser8 on USP25 depletion” value [4] was “promoted RPA32 phosphorylation of Ser4/Ser8”.

With “MSVADPWKKIQLLYS [SH‐1, peptide designed based on the structure of the N‐terminus (aa 1–200) of SHLD2]” the “binding affinity for USP25” value [1] was “showed the binding affinity for USP25” and the “relative binding affinity for USP25 among SH-1 to SH-4” value [1] was “higher affinity”.

“KNFNTNLFQLGHKCA [SH‐4, peptide designed based on the structure of the N‐terminus (aa 1–200) of SHLD2]” was tested, and the “binding affinity for USP25” value [1] was “showed the binding affinity for USP25” and the “relative binding affinity for USP25 among SH-1 to SH-4” value [1] was “higher affinity”.

With N.N.[Cl][Pt][Cl] [cisplatin] the “sensitization by USP25 knockdown” value ([5]; Figure S2f-h) was “sensitized cells to IR, 5‐Fu, and cisplatin treatment”, the “sensitization by USP25 knockdown in SHLD2-depleted cells” value ([5]; SHLD2 siRNA) was “didn't further lead cells to sensitize to these treatments” and the “sensitization by USP25 knockdown, USP25-high cell lines” value [6] was “sensitized the cells to IR, cisplatin, and 5‐Fu treatment”.

B1: SH-4 peptide (peptide)
peptide: KNFNTNLFQLGHKCA
B1 was tested, and the Kd [7] was 20.8 µM and the koff [8] was 0.00484 s⁻¹.
